According to patent US20130089601A1, “METHOD FOR TREATING ATHEROSCLEROSIS” (KAOHSIUNG MEDICAL UNIVERSITY, priority 2009, published 2013):

Key:
VSMC cells = test: Chemotactic migration of VSMC (Transwell); assay type: cell-based, human; details: 100 nM for 24 hours, ox-LDL 40 μg/ml
Protocol: Chemotactic migration is another characteristic of atherosclerosis and can be used as another line of evidence of atherosclerotic change for the cultured VSMC cells. This experiment was assayed by using a microchemotactic chamber and polycarbonate filters with pores of […] in diameter (Transwell, Millipore). After incubated with microRNA-195 (Pre-miR miRNA, hsa-miR-195 (product ID PM10827), Ambion Inc.) (100 nM) or an inhibitor (100 nM) for 24 hours, the VSMC cells were trypsinized and suspended with a serum free medium. A volume (300 μl) of a 1×10^4 cell suspension was placed in the upper chamber, the medium containing ox-LDL (40 μg/ml, each) was placed in the lower and upper chamber. The cell suspension was incubated at a temperature of 37° C. under 5% CO2 in air for 24 hours. After incubation, the VSMC cells on the upper side of the filter were scraped off, and the cells that had directly migrated to the lower side of the filter were trypsinized. The cells were fixed with methanol and stained with a Giemsa solution (Merck). Quantification of chemotactic migration was performed using the hemocytometer.

endogenous microRNA-195 = test: Endogenous microRNA-195 in VSMC by quantitative real-time PCR, normalized to U44; assay type: cell-based, human; details: ox-LDL and simvastatin 1 nM for 24 hours
Protocol: Quantitative real-time PCR was performed in an ABI PRIZM 7500 sequence detection system in triplicates. The typical amplification program was carried out in a 20 μl reaction with a primer at a final concentration of 300 nM and probes of 200 nM. Serial dilutions of the control cDNA for generating standard curves ran in duplicate. Real-time PCR results were analyzed using ABI PRISM 7500 SDS software. Relative differences of microRNAs were quantified using the […] method. For graphical presentation, the 2^−ΔΔCt transformation was used according to the ABI user bulletin version #2. Expression values were depicted relatively to the value at baseline which was the earliest time point present in all the experiments.

| Compound | chemotactic migration, percentage of migrated cells compared to control medium cells (VSMC cells) [%] | endogenous microRNA-195 decrease versus ox-LDL-stimulated cells (endogenous microRNA-195) [fold] |
| --- | --- | --- |
| microRNA-195 inhibitor: 5′-GCCAATATTTCTGTGCTGCTA-3′ (SEQ ID NO: 6), Ambion; used to specifically bind to and inhibit endogenous microRNA-195 (listed as DNA, chemistry not given here) [reference compound] | 233.7 |  |
| CCC(C)(C)C(=O)O[C@H]1C[C@@H](C)C=C2C=C[C@H](C)[C@H](CC[C@@H]3C[C@@H](O)CC(=O)O3)[C@H]21 [simvastatin] |  | > 0.68 |
